Measurements from patent publication US12419877B2, “Solid forms of {[5-(3-chlorophenyl)-3-hydroxypyridine-2-carbonyl]amino}acetic acid, compositions, and uses thereof” (Akebia Therapeutics, Inc., priority 2013, dated 2025).

Experiments:
[1] = Dynamic Vapour Sorption (DVS) with XRPD re-analysis; type: physicochemical
Method: Dynamic Vapour Sorption (DVS) was performed on a DVS-1 dynamic vapour sorption balance by Surface Measurement Systems. Approximately 10-20 mg of sample was loaded into a wire mesh vapour sorption balance pan of the balance. The sample was subjected to a ramping profile from 20-90% relative humidity (RH) in 10% increments, maintaining the sample at each step until a stable weight had been achieved (99.5% step completion) or 1000 minutes had elapsed. After completion of the sorption cycle, the sample was dried using the same procedure, but all the way down to 0% RH and finally taken back to the starting point of 20% RH. The weight change during the sorption/desorption cycles were plotted, allowing for the hygroscopic nature of the sample to be determined. Following the DVS analysis, the solid was re-analysed by XRPD in order to determine whether there had been any change in physical form.

[2] = Solid form stability in slurries; type: physicochemical; conditions: slurries at high temperature

water sorption at 90% RH ([1]; DVS, 90% RH): 0.33%
XRPD analysis following DVS (change in physical form) ([1]; after DVS sorption/desorption cycle): no change in form
hygroscopicity (DVS) ([1]; judged from water sorption at 90% RH): non-hygroscopic
Compound: O=C(O)CNC(=O)c1ncc(-c2cccc(Cl)c2)cc1O [Form B, {[5-(3-chlorophenyl)-3-hydroxypyridine-2-carbonyl]amino}acetic acid]
solid form stability [2]: metastable and can convert to Form A in slurries at high temperature
